The results in this text go back to patent publication US11591355B2 (Peloton Therapeutics, Inc., priority 2017, dated 2023).

For assay [1], the target named is T1, CD73 on U138 human neuroglioma cells (Homo sapiens, UniProt P21589).
T1 construct: U138 cells were obtained from ATCC and cultured in DMEM with 10% FBS; host or cells: U138 human neuroglioma cells
T1 sequence (P21589 27-549): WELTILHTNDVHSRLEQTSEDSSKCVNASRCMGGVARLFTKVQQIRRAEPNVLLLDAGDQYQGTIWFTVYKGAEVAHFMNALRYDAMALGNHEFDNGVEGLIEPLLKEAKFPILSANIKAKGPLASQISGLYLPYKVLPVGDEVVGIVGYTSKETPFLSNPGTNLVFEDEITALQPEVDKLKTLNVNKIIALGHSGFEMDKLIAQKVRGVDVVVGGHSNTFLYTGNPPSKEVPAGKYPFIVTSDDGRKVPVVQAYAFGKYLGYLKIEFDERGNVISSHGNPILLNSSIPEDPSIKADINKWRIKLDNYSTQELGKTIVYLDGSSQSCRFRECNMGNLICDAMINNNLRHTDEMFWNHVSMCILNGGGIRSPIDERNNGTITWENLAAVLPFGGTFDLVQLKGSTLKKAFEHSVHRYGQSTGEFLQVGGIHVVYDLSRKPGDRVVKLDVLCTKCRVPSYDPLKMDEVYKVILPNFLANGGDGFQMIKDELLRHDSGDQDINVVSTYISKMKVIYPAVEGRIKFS
Kind of assay: CD73 Cell-Based Assay. The note with it: U138 cells, AMP substrate, 2 hours at 37° C., inorganic phosphate by malachite green. The essentials:
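Whole U138 cells washed free of phosphate were incubated with 200 μM AMP (mixture concentration before equal-volume addition) plus compound in HEPES-buffered saline, pH 7.4, for 2 h at 37 °C, 5% CO2. Adenosine-forming activity read as inorganic phosphate released into supernatant by malachite green.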

The target of the next assay is T2, Human CD73 (Homo sapiens, UniProt P21589).
T2 construct: purchased R&D Systems; host or cells: CHO cells
T2 sequence (P21589 27-549): T1 sequence (P21589 27-549)
As to the kind of experiment: CD73 Enzyme Assay. In kind it is biochemical. The note with it: 0.25 nM hCD73, 25 μM AMP, kinetic read at 360 nm; read-out: CD73 Enzyme Assay IC50.

Structures are written as SMILES. Where only a bound is given, the exact number is not on record here.

Usually IC50 stands for the concentration at which inhibition is half-maximal. Consider `C[C@@H](Nc1nc(C#N)nc2c1ccn2[C@@H]1O[C@H](COCP(=O)(O)O)[C@@H](O)[C@H]1O)c1ccc(C(F)(F)F)cc1` [Compound 115, [(2R,3S,4R,5R)-5-[2-cyano-4-[[(1R)-1-[4-(trifluoromethyl)-phenyl]ethyl]amino]-pyrrolo[2,3-d]-pyrimidin-7-yl]-3,4-dihydroxy-tetrahydro-furan-2-yl]methoxy-methylphosphonic acid], for which the IC50 is 10 to 100 nM in assay [1] and less than 10 nM on Human CD73.
The like results for `C[C@H](Nc1nc(Cl)nc2c1ccn2[C@@H]1O[C@H](COCP(=O)(O)O)[C@@H](O)[C@H]1O)c1ccc(F)cc1F` [Compound 116, [(2R,3S,4R,5R)-5-[2-chloro-4-[[(1S)-1-(2,4-difluorophenyl)-ethyl]amino]pyrrolo-[2,3-d]pyrimidin-7-yl]-3,4-dihydroxy-tetrahydrofuran-2-yl]methoxymethyl-phosphonic acid] were, in that order, less than 10 nM and less than 10 nM.
The like results for `C[C@H](Nc1nc(Cl)nc2c1ccn2[C@@H]1O[C@H](COCP(=O)(O)O)[C@@H](O)[C@H]1O)c1ccc(C#N)cc1` [Compound 117, [(2R,3S,4R,5R)-5-[2-chloro-4-[[(1S)-1-(4-cyanophenyl)ethyl]-amino]pyrrolo[2,3-d]-pyrimidin-7-yl]-3,4-dihydroxy-tetrahydro-furan-2-yl]methoxy-methylphosphonic acid] were, in that order, less than 10 nM and 10 to 100 nM.
For `N#Cc1nc(NC2CCCCC2)c2ccn([C@@H]3O[C@H](COCP(=O)(O)O)[C@@H](O)[C@H]3O)c2n1` [Compound 119, [(2R,3S,4R,5R)-5-[2-cyano-4-(cyclohexyl-amino)pyrrolo[2,3-d]-pyrimidin-7-yl]-3,4-dihydroxy-tetrahydro-furan-2-yl]methoxy-methylphosphonic acid], in that order: less than 10 nM and less than 10 nM.
`N#Cc1nc(NC2CCOCC2)c2ccn([C@@H]3O[C@H](COCP(=O)(O)O)[C@@H](O)[C@H]3O)c2n1` [Compound 120, [(2R,3S,4R,5R)-5-[2-cyano-4-(tetrahydro-pyran-4-ylamino)-pyrrolo[2,3-d]-pyrimidin-7-yl]-3,4-dihydroxy-tetrahydro-furan-2-yl]methoxy-methylphosphonic acid]: the IC50 was 10 to 100 nM in assay [1] and 100 to 1000 nM on Human CD73.
The like results for `O=P(O)(O)COC[C@H]1O[C@@H](n2ccc3c(NC4CCC(F)(F)CC4)nc(Cl)nc32)[C@H](O)[C@@H]1O` [Compound 121, [(2R,3S,4R,5R)-5-[2-chloro-4-[(4,4-difluorocyclohexyl)-amino]pyrrolo[2,3-d]-pyrimidin-7-yl]-3,4-dihydroxy-tetrahydro-furan-2-yl]methoxy-methylphosphonic acid] were, in that order, less than 10 nM and 10 to 100 nM.
The like results for `N#Cc1nc(N2CCC2)c2ccn([C@@H]3O[C@H](COCP(=O)(O)O)[C@@H](O)[C@H]3O)c2n1` [Compound 122, [(2R,3S,4R,5R)-5-[4-(azetidin-1-yl)-2-cyano-pyrrolo[2,3-d]-pyrimidin-7-yl]-3,4-dihydroxy-tetrahydro-furan-2-yl]methoxy-methylphosphonic acid] were, in that order, 10 to 100 nM and 10 to 100 nM.
On to `O=P(O)(O)COC[C@H]1O[C@@H](n2ccc3c(N4CCC(F)(F)C4)nc(Cl)nc32)[C@H](O)[C@@H]1O` [Compound 123, [(2R,3S,4R,5R)-5-[2-chloro-4-(3,3-difluoro-pyrrolidin-1-yl)pyrrolo-[2,3-d]pyrimidin-7-yl]-3,4-dihydroxy-tetrahydrofuran-2-yl]-methoxymethylphos-phonic acid], for which the IC50 (in assay [1]; on Human CD73) was less than 10 nM throughout.
In the case of `C[C@H](c1ccccc1)N(C)c1nc(Cl)nc2c1ccn2[C@@H]1O[C@H](COCP(=O)(O)O)[C@@H](O)[C@H]1O` [Compound 124, [(2R,3S,4R,5R)-5-[2-chloro-4-[methyl-[(1R)-1-phenylethyl]-amino]pyrrolo[2,3-d]-pyrimidin-7-yl]-3,4-dihydroxy-tetrahydro-furan-2-yl]methoxy-methylphosphonic acid], the IC50 (in assay [1]; on Human CD73) was less than 10 nM each time.
For the molecule `N#Cc1nc(N2CCC(F)(F)C2)c2ccn([C@@H]3O[C@H](COCP(=O)(O)O)[C@@H](O)[C@H]3O)c2n1` [Compound 125, [(2R,3S,4R,5R)-5-[2-cyano-4-(3,3-difluoropyrrolidin-1-yl)-pyrrolo[2,3-d]-pyrimidin-7-yl]-3,4-dihydroxy-tetrahydro-furan-2-yl]methoxy-methylphosphonic acid], the IC50 (in assay [1]; at Human CD73) was less than 10 nM in each case.
For the molecule `O=P(O)(O)COC[C@H]1O[C@@H](n2ccc3c(N4CCCCC4)nc(Cl)nc32)[C@H](O)[C@@H]1O` [Compound 126, [(2R,3S,4R,5R)-5-[2-chloro-4-(1-piperidyl)-pyrrolo[2,3-d]-pyrimidin-7-yl]-3,4-dihydroxy-tetrahydro-furan-2-yl]methoxy-methylphosphonic acid], the values for the IC50 (in assay [1]; on Human CD73) were less than 10 nM and 10 to 100 nM, respectively.
For `N#Cc1nc(N2CCOCC2)c2ccn([C@@H]3O[C@H](COCP(=O)(O)O)[C@@H](O)[C@H]3O)c2n1` [Compound 127, [(2R,3S,4R,5R)-5-(2-cyano-4-morpholino-pyrrolo[2,3-d]-pyrimidin-7-yl)-3,4-dihydroxy-tetrahydro-furan-2-yl]methoxy-methylphosphonic acid], in that order: 10 to 100 nM and 10 to 100 nM.
For `O=P(O)(O)COC[C@H]1O[C@@H](n2ccc3c(N4CCC(F)(F)CC4)nc(Cl)nc32)[C@H](O)[C@@H]1O` [Compound 128, [(2R,3S,4R,5R)-5-[2-chloro-4-(4,4-difluoro-1-piperidyl)pyrrolo-[2,3-d]pyrimidin-7-yl]-3,4-dihydroxy-tetrahydrofuran-2-yl]-methoxymethylphos-phonic acid], in that order: 10 to 100 nM and 10 to 100 nM.
The like results for `N#Cc1nc(N2CCC(F)(F)CC2)c2ccn([C@@H]3O[C@H](COCP(=O)(O)O)[C@@H](O)[C@H]3O)c2n1` [Compound 129, [(2R,3S,4R,5R)-5-[2-cyano-4-(4,4-difluoro-1-piperidyl)pyrrolo-[2,3-d]pyrimidin-7-yl]-3,4-dihydroxy-tetrahydrofuran-2-yl]-methoxymethylphos-phonic acid] were, in that order, 10 to 100 nM and 10 to 100 nM.
On to `C[C@@H](Nc1nc(Cl)nc2c1c(F)cn2[C@@H]1O[C@H](COCP(=O)(O)O)[C@@H](O)[C@H]1O)c1ccccc1` [Compound 130, [(2R,3S,4R,5R)-5-[2-chloro-5-fluoro-4-[[(1R)-1-phenylethyl]-amino]pyrrolo[2,3-d]-pyrimidin-7-yl]-3,4-dihydroxy-tetrahydro-furan-2-yl]methoxy-methylphosphonic acid], for which the IC50 (in assay [1]; at Human CD73) was 10 to 100 nM throughout.
Take `C[C@@H](c1ccccc1)N(C)c1nc(Cl)nc2c1ccn2[C@@H]1O[C@H](COCP(=O)(O)O)[C@@H](O)[C@H]1O` [Compound 131, [(2R,3S,4R,5R)-5-[2-chloro-4-[methyl-[(1S)-1-phenylethyl]-amino]pyrrolo[2,3-d]-pyrimidin-7-yl]-3,4-dihydroxy-tetrahydro-furan-2-yl]methoxy-methylphosphonic acid]: the IC50 (in assay [1]; at Human CD73) was less than 10 nM in each case.
`C[C@H](c1ccccc1)N(C)c1nc(Cl)nc2c1ccn2[C@@H]1O[C@H](COCP(=O)(O)OCOC(=O)C(C)(C)C)[C@@H](O)[C@H]1O` [Compound 132, ((((((2R,3S,4R,5R)-5-(2-chloro-4-(methyl((R)-1-phenylethyl)amino)-7H-pyrrolo[2,3-d]pyrimidin-7-yl)-3,4-dihydroxytetrahydrofuran-2-yl)methoxy)methyl)(hydroxy)phosphoryl)oxy)methyl pivalate]: the IC50 was 10 to 100 nM in assay [1] and less than 10 nM on Human CD73.
For `C[C@H](c1ccccc1)N(C)c1nc(Cl)nc2c1ccn2[C@@H]1O[C@H](COCP(=O)(OCOC(=O)C(C)(C)C)OCOC(=O)C(C)(C)C)[C@@H](O)[C@H]1O` [Compound 133, ((((((2R,3S,4R,5R)-5-(2-chloro-4-(methyl((R)-1-phenylethyl)amino)-7H-pyrrolo[2,3-d]pyrimidin-7-yl)-3,4-dihydroxytetrahydrofuran-2-yl)methoxy)methyl)phosphoryl)bis(oxy))bis(methylene) bis(2,2-dimethylpropanoate)], in that order: more than 1000 nM and more than 1000 nM.
For `C[C@@H](Nc1cc(Cl)nc2c1ccn2[C@@H]1O[C@H](COCP(=O)(O)O)[C@@H](O)[C@H]1O)c1ccccc1` [Compound 134, [(2R,3S,4R,5R)-5-[6-chloro-4-[[(1R)-1-phenylethyl]amino]pyrrolo[2,3-b]pyridin-1-yl]-3,4-dihydroxy-tetrahydrofuran-2-yl]methoxymethylphosphonic acid], in that order: 10 to 100 nM and less than 10 nM.
